Experimental data reported in the NIST ThermoML archive (doi:10.1016/j.tca.2015.02.014).
± gives the expanded uncertainty stated by the source.

Experiments:
[1] = mn = molality of the nth substance listed, in mol/kg; details: 100 kPa, Liquid; for viscosity: Capillary tube (Ostwald / Ubbelohde) method; for speed of sound: Frequency=3 MHz, Sing-around technique in a fixed-path interferometer; for mass density: Vibrating tube method
[2] = 100 kPa, Liquid, Capillary tube (Ostwald / Ubbelohde) method

Compound | viscosity ([1]; 293.15 K, m1 = 0.1) | speed of sound ([1]; 293.15 K, m1 = 0.1) | mass density ([1]; 293.15 K, m1 = 0.1) | viscosity ([1]; 298.15 K, m1 = 0.1) | speed of sound ([1]; 298.15 K, m1 = 0.1) | mass density ([1]; 298.15 K, m1 = 0.1) | viscosity ([1]; 303.15 K, m1 = 0.1) | speed of sound ([1]; 303.15 K, m1 = 0.1) | viscosity ([1]; 308.15 K, m1 = 0.1) | speed of sound ([1]; 308.15 K, m1 = 0.1) | viscosity ([1]; 313.15 K, m1 = 0.1) | speed of sound ([1]; 313.15 K, m1 = 0.1) | mass density ([1]; 313.15 K, m1 = 0.1) | viscosity ([1]; 318.15 K, m1 = 0.1) | speed of sound ([1]; 318.15 K, m1 = 0.1) | mass density ([1]; 303.15 K, m1 = 0.1) | mass density ([1]; 308.15 K, m1 = 0.1) | mass density ([1]; 318.15 K, m1 = 0.1) | other results
NCC(=O)O [2-aminoacetic acid] + O | 1.016 ± 0.022 mPa·s | 1488.2 ± 1.7 m/s | 1001.51 ± 0.27 kg/m3 | 0.9031 ± 0.022 mPa·s | 1502.2 ± 1.7 m/s | 1000.32 ± 0.27 kg/m3 | 0.808 ± 0.021 mPa·s | 1514.4 ± 1.7 m/s | 0.7271 ± 0.021 mPa·s | 1525 ± 1.7 m/s | 0.6645 ± 0.021 mPa·s | 1533.9 ± 1.7 m/s | 995.401 ± 0.28 kg/m3 | 0.5988 ± 0.021 mPa·s | 1541.3 ± 1.6 m/s |  |  |  | 
N[C@@H](Cc1c[nH]cn1)C(=O)O [L-histidine] + O | 1.052 ± 0.022 mPa·s | 1491.8 ± 1.7 m/s | 1003.99 ± 0.27 kg/m3 | 0.928 ± 0.022 mPa·s | 1505.3 ± 1.7 m/s | 1002.8 ± 0.28 kg/m3 | 0.8289 ± 0.021 mPa·s | 1517.4 ± 1.7 m/s | 0.7447 ± 0.021 mPa·s | 1527.6 ± 1.7 m/s | 0.6783 ± 0.021 mPa·s | 1536.3 ± 1.7 m/s | 997.795 ± 0.28 kg/m3 | 0.5915 ± 0.021 mPa·s | 1543.8 ± 1.6 m/s | 1001.33 ± 0.28 kg/m3 | 999.656 ± 0.28 kg/m3 | 995.765 ± 0.27 kg/m3 | 
CC(C)C[C@H](N)C(=O)O [L-leucine] + O | 1.06 ± 0.022 mPa·s | 1494.9 ± 1.7 m/s | 1000.79 ± 0.27 kg/m3 | 0.9398 ± 0.022 mPa·s | 1508.3 ± 1.7 m/s | 999.575 ± 0.27 kg/m3 | 0.8362 ± 0.022 mPa·s | 1520.2 ± 1.7 m/s | 0.7509 ± 0.021 mPa·s | 1530.3 ± 1.7 m/s | 0.6801 ± 0.021 mPa·s | 1538.8 ± 1.7 m/s | 994.559 ± 0.29 kg/m3 | 0.6014 ± 0.021 mPa·s | 1545.9 ± 1.6 m/s | 998.115 ± 0.28 kg/m3 | 996.485 ± 0.28 kg/m3 | 992.305 ± 0.28 kg/m3 | 
CSCC[C@H](N)C(=O)O [L-methionine] + O | 1.034 ± 0.023 mPa·s | 1493 ± 1.9 m/s | 1002.78 ± 0.43 kg/m3 | 0.92 ± 0.022 mPa·s | 1506.7 ± 2 m/s | 1001.58 ± 0.43 kg/m3 | 0.8289 ± 0.022 mPa·s | 1518.5 ± 1.9 m/s | 0.7461 ± 0.021 mPa·s | 1528.7 ± 1.9 m/s | 0.6799 ± 0.021 mPa·s | 1537 ± 1.9 m/s | 996.591 ± 0.43 kg/m3 | 0.6105 ± 0.021 mPa·s | 1544.2 ± 1.9 m/s | 1000.16 ± 0.44 kg/m3 | 998.461 ± 0.43 kg/m3 | 994.572 ± 0.43 kg/m3 | 
O [water] |  |  |  |  |  |  |  |  |  |  |  |  |  |  |  |  |  |  | viscosity ([2]; 293.15 K): 1.002 ± 0.021 mPa·s; viscosity ([2]; 298.15 K): 0.8903 ± 0.021 mPa·s; viscosity ([2]; 303.15 K): 0.7973 ± 0.021 mPa·s; viscosity ([2]; 308.15 K): 0.719 ± 0.021 mPa·s; viscosity ([2]; 313.15 K): 0.6526 ± 0.021 mPa·s; viscosity ([2]; 318.15 K): 0.596 ± 0.021 mPa·s
O [water] + C[C@H](CCC(=O)[O-])[C@H]1CC[C@H]2[C@@H]3CC[C@@H]4C[C@H](O)CC[C@]4(C)[C@H]3C[C@H](O)[C@]12C.[Na+] |  |  |  |  |  |  |  |  |  |  |  |  |  |  |  |  |  |  | viscosity ([1]; 293.15 K, m2 = 0): 1.002 ± 0.021 mPa·s; viscosity ([1]; 298.15 K, m2 = 0): 0.8903 ± 0.021 mPa·s; viscosity ([1]; 303.15 K, m2 = 0): 0.7973 ± 0.021 mPa·s; viscosity ([1]; 308.15 K, m2 = 0): 0.719 ± 0.021 mPa·s; viscosity ([1]; 313.15 K, m2 = 0): 0.6526 ± 0.021 mPa·s; speed of sound ([1]; 313.15 K, m2 = 0): 1529.2 ± 1.3 m/s; viscosity ([1]; 318.15 K, m2 = 0): 0.596 ± 0.021 mPa·s; speed of sound ([1]; 318.15 K, m2 = 0): 1536.5 ± 1.3 m/s; mass density ([1]; 318.15 K, m2 = 0): 990.256 ± 0.15 kg/m3
O [water] + C[C@H](CCC(=O)[O-])[C@H]1CC[C@H]2[C@@H]3[C@H](O)C[C@@H]4C[C@H](O)CC[C@]4(C)[C@H]3C[C@H](O)[C@]12C.[Na+] |  |  |  |  |  |  |  |  |  |  |  |  |  |  |  |  |  |  | viscosity ([1]; 293.15 K, m2 = 0): 1.002 ± 0.021 mPa·s; viscosity ([1]; 298.15 K, m2 = 0): 0.8903 ± 0.021 mPa·s; viscosity ([1]; 303.15 K, m2 = 0): 0.7973 ± 0.021 mPa·s; viscosity ([1]; 308.15 K, m2 = 0): 0.719 ± 0.021 mPa·s; viscosity ([1]; 313.15 K, m2 = 0): 0.6526 ± 0.021 mPa·s; speed of sound ([1]; 313.15 K, m2 = 0): 1529.2 ± 1.3 m/s; viscosity ([1]; 318.15 K, m2 = 0): 0.596 ± 0.021 mPa·s; speed of sound ([1]; 318.15 K, m2 = 0): 1536.5 ± 1.3 m/s; mass density ([1]; 318.15 K, m2 = 0): 990.256 ± 0.14 kg/m3
